This is an account of results in ChEMBL document CHEMBL1139852, “A distinctive structural twist in the aminoimidazole alkaloids from a calcareous marine sponge: isolation and characterization of leucosolenamines A and B” (J Nat Prod, 2007).

Holding throughout (assay type): cell-based
The nature of data set [1]: Cytotoxicity against mouse CFU-GM cells at 7.8 ug/disk.
Data set [2] concerns MC-38. As to the kind of experiment: Cytotoxicity against mouse C38 cells at 7.8 ug/disk.
The nature of data set [3]: Selective cytotoxicity for mouse C38 cells over CFU-GM cells at 7.8 ug/disk. The settings on record: mc-38.
Data set [4] deals with MC-38. In words: Cytotoxicity against mouse C38 cells at 180 ug/disk.
Data set [5] in a line: Selective cytotoxicity for mouse C38 cells over CFU-GM cells at 180 ug/disk. The settings on record: mc-38.
The nature of data set [6]: Cytotoxicity against mouse CFU-GM cells at 180 ug/disk.

Structures are written as SMILES.

Consider `CO[C@@H](C(=O)N[C@H]1CCCCNC1=O)[C@H](O)[C@@H](O)[C@H](O)/C=C/C(C)C` [BENGAMIDE E], for which the “inhibition zone (IZ)” value is recorded as 16.5 mm in data set [1], 21 mm with MC-38 [2] and 4.5 mm in data set [3].
In the case of `Cc1cn([C@H]2C[C@H](O)[C@@H](CO)O2)c(=O)[nH]c1=O` [DOXRIBTIMINE], the Activity entry (with MC-38 [4]; in data set [6]) was “Not Active” each time. Besides, the “inhibition zone (IZ)” value in data set [5] turned out to be 0 mm.
Turning to `Cn1c(/N=C2\NC(=N)N=C2Cc2ccc3c(c2)OCO3)c(N)c(=O)n(C)c1=O` [LEUCOSOLENAMINE A], the “inhibition zone (IZ)” value with MC-38 [4] amounted to 10.5 mm; in data set [5], 10.5 mm; in data set [6], 0 mm.
